Where a name gives a salt, the structure may show the parent alone.
Tests used:
[1] = molecular target: T1, KRAS-G12D and SOS1 (Homo sapiens, UniProt P01116, G12D); experiment: Inhibition of KRAS-G12D/SOS1 binding (Cisbio binding kit, 665/615 ratio), Effect Embodiment A; settings: read-out: GTP-KRAS-G12D:SOS1 IC50
T1 construct: purchased
How it was run: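 Duplicate wells received an eleven-point, threefold compound titration whose top point was the stock solution; final DMSO 1%.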

[2] = molecular target: T2, KRAS_G12D and cRAF (Homo sapiens, UniProt P01116, G12D); experiment: Inhibition of KRAS_G12D/cRAF binding (Cisbio binding kit, 665/615 ratio), Effect Embodiment B; settings: read-out: GTP-KRAS-G12D:CRAF IC50
T2 construct: purchased
T2 sequence (P01116 1-188 isoform P01116-2 G12D): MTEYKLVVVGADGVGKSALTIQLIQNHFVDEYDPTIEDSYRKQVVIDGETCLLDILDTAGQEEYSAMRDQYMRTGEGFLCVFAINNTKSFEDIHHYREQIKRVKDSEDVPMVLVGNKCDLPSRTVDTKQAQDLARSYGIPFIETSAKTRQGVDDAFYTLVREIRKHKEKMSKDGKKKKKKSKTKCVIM
Method: Similarly, the first dilution point of the compound to be tested was its storage solution, and the solution was 3-fold diluted, with 11+0 points of dilution. Echo was used to transfer 0.2 μL gradient diluted solution of the compounds into a 384-well plate, with 2 duplicated wells for each compound, and the final concentration of DMSO was 1%. The solution was centrifuged for 1 min at 1000 rpm/min.
IC50 of the compounds was fitted by Graphpad Prism 8 nonlinear regression equation: […]
The IC50 (half inhibitory concentration) of the compound was obtained by using the following nonlinear fitting formula: […]

T1 sequence (P01116 1-188 isoform P01116-2 G12D): as above

| IC50 [1] | IC50 [2] | SMILES |
| --- | --- | --- |
| 1350 nM | 7310 nM | CN(C)C1CN(c2nc(N3CCNCC3)c3cc(Cl)c(-c4cc(O)cc5ccccc45)c(F)c3n2)C1 (single isomer, unassigned) [Comparative embodiment a, reference compound] |
| 113 nM | 461 nM | CO[C@H](COc1nc(N2CC3CCC(C2)N3)c2cc(Cl)c(-c3cc(O)cc4ccccc34)c(F)c2n1)CN1C2CCC1COC2 (single isomer, unassigned) [Compound 184, (4R or S)-4-(2-((2S)-3-(3-oxa-8-azabicyclo[3.2.1]octan-8-yl)-2-methoxypropoxy)-4-((1R,5S)-3,8-diazabicyclo[3.2.1]octan-3-yl)-6-chloro-8-fluoroquinazolin-7-yl)naphthalen-2-ol diformate] |
| 97.5 nM | 272 nM | CC(F)(COc1nc(N2CC3CCC(C2)N3)c2cc(Cl)c(-c3cc(O)cc4ccccc34)c(F)c2n1)CN1C2CCC1COC2 (single isomer, unassigned) [Compound 208b, (4S or 4R)-4-(2-((2(S or R)-3-(3-oxa-8-azabicyclo[3.2.1]octan-8-yl)-2-fluoro-2-methylpropoxy)-4-((1R,5S)-3,8-diazabicyclo[3.2.1]octan-3-yl)-6-chloro-8-fluoroquinazolin-7-yl)naphthalen-2-ol formate] |
| 17.4 nM | 21.6 nM | CC[C@@H]1CN(C[C@@H](C)COc2nc(N3CC4CCC(C3)N4)c3cc(Cl)c(-c4cc(O)cc5ccccc45)c(F)c3n2)C[C@H](CC)O1 (single isomer, unassigned) [Compound 219, 4-((S or R)-4-((1R,5S)-3,8-diazabicyclo[3.2.1]octan-3-yl)-6-chloro-2-((R)-3-((2R,6S)-2,6-diethylmorpholinyl)-2-methylpropoxy)-8-fluoroquinazolin-7-yl)naphthalen-2-ol formate] |
| 19.3 nM | 29.6 nM | C[C@@H](COc1nc(N2CC3CCC(C2)N3)c2cc(Cl)c(-c3cc(O)cc4ccccc34)c(F)c2n1)CN1C[C@H](C)O[C@@H](C)C1 (single isomer, unassigned) [Compound 220, 4-((S or R)-4-((1R,5S)-3,8-diazabicyclo[3.2.1]octan-3-yl)-6-chloro-2-((R)-3-((2S,6S)-2,6-dimethylmorpholinyl)-2-methylpropoxy)-8-fluoroquinazolin-7-yl)naphthalen-2-ol formate] |
| 67.9 nM | 154 nM | C[C@@H](COc1nc(N2CC3CCC(C2)N3)c2cc(Cl)c(-c3cc(O)cc4ccccc34)c(F)c2n1)CN1C[C@@H](C)OC[C@@H]1C (single isomer, unassigned) [Compound 226, 4-((S or R)-4-((1R,5S)-3,8-diazabicyclo[3.2.1]octan-3-yl)-6-chloro-2-((R)-3-((2R,5S)-2,5-dimethylmorpholinyl)-2-methylpropoxy)-8-fluoroquinazolin-7-yl)naphthalenol formate] |
| 91.9 nM | 579 nM | Oc1cc(-c2c(Cl)cc3c(N4CC5CCC(C4)N5)nc(OCC(CN4C5CCC4COC5)C(F)(F)F)nc3c2F)c2ccccc2c1 (single isomer, unassigned) [Compound 218a, 4-((7S or 7R)-2-((2S or 2R)-2-((3-oxa-8-azabicyclo[3.2.1]octan-8-yl)methyl)-3,3,3-trifluoropropoxy)-4-((1R,5S)-3,8-diazabicyclo[3.2.1]octan-3-yl)-6-chloro-8-fluoroquinazolin-7-yl)naphthalen-2-ol diformate] |
| 92.1 nM | 358 nM | C[C@@H](COc1nc(N2CC3CCC(C2)N3)c2cc(Cl)c(-c3cc(B(O)O)cc4ccccc34)c(F)c2n1)CN1C2CCC1COC2 (single isomer, unassigned) [Compound 256, (4-((7S or 7R)-2-((2R)-3-(3-oxa-8-azabicyclo[3.2.1]octan-8-yl)-2-methylpropoxy)-4-((1R,5S)-3,8-diazabicyclo[3.2.1]octan-3-yl)-6-chloro-8-fluoroquinazolin-7-yl)naphthalen-2-yl)boronic acid ditrifluoroacetate] |
| 9410 nM |  | CCc1cccc2cc(O)cc(-c3c(F)cc4c(N5CC6CCC(C5)N6)nc(OCCCN5C6CCC5COC6)nc4c3F)c12 (single isomer, unassigned) [Compound 271b, 4-((7R or 7S)-2-(3-(3-oxa-8-azabicyclo[3.2.1]octan-8-yl)propoxy)-4-((1R,5S)-3,8-diazabicyclo[3.2.1]octan-3-yl)-6,8-difluoroquinazolin-7-yl)-5-ethylnaphthalen-2-ol diformate] |
| 155000 nM |  | CN(C)C1CN(c2nc(N=S3(=O)CCC(N)CC3)c3cc(Cl)c(-c4cc(O)cc5ccccc45)c(F)c3n2)C1 (single isomer, unassigned) [Compound 72b, (4R or S)-4-amino-1-(((S or R)-6-chloro-2-(3-(dimethylamino)azetidin-1-yl)-8-fluoro-7-(3-hydroxynaphthalen-1-yl)quinazolin-4-yl)imino)hexahydro-1-thiopyran 1-oxide] |
| 556 nM |  | O=S1(=O)CC2CCC(C1)N2CCCOc1nc(N2CC3CCC(C2)N3)c2cc(Cl)c(-c3cc(O)cc4ccccc34)c(F)c2n1 (single isomer, unassigned) [Compound 212, 8-(3-((S or R)-4-((1R,5S)-3,8-diazabicyclo[3.2.1]octan-3-yl)-6-chloro-8-fluoro-7-(3-hydroxynaphthalen-1-yl)quinazolin-2-yl)oxy)propyl)-3-thio-8-azabicyclo[3.2.1]octane-3,3-dioxide formate] |
| 83400 nM |  | CN(C)C1CN(c2nc(N3CCNCC3)c3cc(Cl)c(-c4cc(O)cc5ccccc45)c(F)c3n2)C1 (single isomer, unassigned) [Comparative embodiment b, reference compound] |
| 83400 nM |  | CNCCN(C)c1nc(N2CC(N(C)C)C2)nc2c(F)c(-c3cc(O)cc4ccccc34)c(Cl)cc12 (single isomer, unassigned) [Compound 16b, (S or R)-4-(6-chloro-2-(3-(dimethylamino)azetidin-1-yl)-8-fluoro-4-(methyl(2-(methylamino)ethyl)amino)quinazolin-7-yl)naphthalen-2-ol] |
| 108 nM |  | Oc1cc(-c2ncc3c(N4C[C@H]5CC[C@@H](C4)N5)nc(OCCc4ccccn4)nc3c2F)c2ccccc2c1 [Compound 138, 4-(4-((1R,5S)-3,8-diazabicyclo[3.2.1]octan-3-yl)-8-fluoro-2-(2-(pyridin-2-yl)ethoxy)pyridyl[4,3-d]pyrimidin-7-yl)naphthalen-2-ol trifluoroacetate] |
| 134 nM |  | CCCN(C)CCOc1nc(N2C[C@H]3CC[C@@H](C2)N3)c2cc(Cl)c(-c3cc(O)cc4ccccc34)c(F)c2n1 (single isomer, unassigned) [Compound 126, (S or R)-4-(4-((1R,5S)-3,8-diazabicyclo[3.2.1]octan-3-yl)-6-chloro-8-fluoro-2-(2-(methyl(propyl)amino)ethoxy)quinazolin-7-yl)naphthalen-2-ol dihydrochloride] |
| 186 nM | 431 nM | Nc1cc(-c2c(Cl)cc3c(N4C[C@H]5CC[C@@H](C4)N5)nc(OCCCN4C5CCC4COC5)nc3c2F)c2ccccc2c1 (single isomer, unassigned) [Compound 192b, 4-((7S or 7R)-2-(3-(3-oxa-8-azabicyclo[3.2.1]octan-8-yl)propoxy)-4-((1R,5S)-3,8-diazabicyclo[3.2.1]octan-3-yl)-6-chloro-8-fluoroquinazolin-7-yl)naphthalen-2-amine tritrifluoroacetate] |
| 42.5 nM | 109 nM | CC(F)(COc1nc(N2CC3CCC(C2)N3)c2cc(Cl)c(-c3cc(O)cc4ccccc34)c(F)c2n1)CN1C2CCC1COC2 (single isomer, unassigned) [Compound 208a, ((4S or 4R)-4-(2-((2(R or S)-3-(3-oxa-8-azabicyclo[3.2.1]octan-8-yl)-2-fluoro-2-methylpropoxy)-4-((1R,5S)-3,8-diazabicyclo[3.2.1]octan-3-yl)-6-chloro-8-fluoroquinazolin-7-yl)naphthalen-2-ol formate] |
| 199 nM |  | CN1CCC[C@H]1COc1nc(N2CC3NC(C2)C2CC32)c2cnc(-c3cc(O)cc4ccccc34)c(F)c2n1 (stereo partly drawn) [Compound 158, 4-(8-Fluoro-2-((S)-1-methylpyrrolidin-2-yl)methoxy)-4-((1R,2R,4S,5S)-7,9-diazatricyclo[3.3.1.0^2,4]nonan-7-yl)pyridinyl[4,3-d]pyrimidin-7-yl)naphthalen-2-ol diformate] |
| 90.9 nM | 293 nM | Oc1cc(-c2c(Cl)cc3c(N4CC5CCC(C4)N5)nc(OCC(CN4C5CCC4COC5)C4CC4)nc3c2F)c2ccccc2c1 (single isomer, unassigned) [Compound 209b, 4-((7S or 7R))-2-(2(S or R))-3-(3-oxa-8-azabicyclo[3.2.1]octan-8-yl)-2-cyclopropylpropoxy)-4-((1R,5S)-3,8-diazabicyclo[3.2.1]octan-3-yl)-6-chloro-8-fluoroquinazolin-7-yl)naphthalen-2-ol diformate] |

| SMILES | IC50 [1] | IC50 [2] |
| --- | --- | --- |
| CN(C)C1CN(c2nc(C3CCNCC3)c3cc(Cl)c(-c4cc(O)cc5ccccc45)c(F)c3n2)C1 [Compound 20a, (R or S)-4-(6-chloro-2-(3-(dimethylamino)azetidin-1l-yl)-8-fluoro-4-(piperidin-4-yl)quninazolin-7-yl)naphthalen-2-ol] | 4800 nM |  |
